Laboratory results: patent US20060178415A1, “Azole derivatives as antifungal agents” (priority 2002, published 2006)
≈ marks a conversion by molar mass, not a printed value. Where two headings read alike, the source gives them in different places.

Legend:
A. fum. = assay: In vitro antifungal MIC, NCCLS M38P broth method in RPMI 1640/MOPS pH 7; assay type: cell-based, Aspergillus fumigatus; settings: for MIC: Aspergillus fumigatus
Text: The in vitro evaluation of the antifungal activity of the compound of this invention (as shown in Table I) can be performed by determining the minimum inhibitory concentration (MIC) which is the concentration of the test compound in Rosewell Park Memorial Institute (RPMI) 1640 liquid medium buffered with 3-(Morpholino)propane sulfonic acid (MOPS) to pH 7, at which there is significant inhibition of the particular fungi. In practice the National Committee for Clinical Laboratory Standard (NCCLS) M27A document for Candida and Cryptococcus and M38P for Aspergillus was used to determine the MIC and readings recorded only when the Quality Control results fell into the acceptable range. After MIC results had been recorded, 100 μL from each of the well showing no growth was spread over Sabouraud Dextrose Agar (SDA) to determine the minimum fungicidal concentration (MFC).

[1] = system: ergosterol P^450DM in A. fumigatus lysates; settings: cited from earlier work
[2] = target: T1, ergosterol P^450DM in C. albicans lysates (Candida albicans, UniProt P10613); settings: cited from earlier work
T1 construct: host or cells: C. albicans lysate
T1 sequence (P10613 whole entry): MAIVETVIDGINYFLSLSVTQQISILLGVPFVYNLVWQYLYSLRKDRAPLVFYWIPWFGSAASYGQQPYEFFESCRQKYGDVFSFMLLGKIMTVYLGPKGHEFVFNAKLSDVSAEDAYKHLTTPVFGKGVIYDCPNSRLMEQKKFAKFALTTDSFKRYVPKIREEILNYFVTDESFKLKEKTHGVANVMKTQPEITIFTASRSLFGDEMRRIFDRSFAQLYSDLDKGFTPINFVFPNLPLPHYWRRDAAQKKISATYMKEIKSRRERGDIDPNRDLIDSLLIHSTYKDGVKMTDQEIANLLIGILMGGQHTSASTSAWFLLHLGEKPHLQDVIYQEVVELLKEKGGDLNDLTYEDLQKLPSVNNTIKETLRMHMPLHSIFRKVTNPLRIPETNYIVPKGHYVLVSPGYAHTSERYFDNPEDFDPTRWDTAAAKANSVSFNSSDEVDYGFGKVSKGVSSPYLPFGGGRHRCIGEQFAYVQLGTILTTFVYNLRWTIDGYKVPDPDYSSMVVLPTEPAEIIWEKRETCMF

[3] = A. fumigatus strain 1008, RPMI 1640, MOPS pH 7, read-out: MIC (A. fum.) 1008
[4] = A. fumigatus strain Si-l, RPMI 1640, MOPS pH 7, read-out: MIC (A. fum.) Si-l
[5] = A. fumigatus strain 1008, RPMI 1640, MOPS pH 7
[6] = A. fumigatus strain Si-l, RPMI 1640, MOPS pH 7
[7] = pH 7, read-out: MIC (A. fum.) 1008
[8] = pH 7, read-out: MIC (A. fum.) Si-l

Question: For `C[C@@H](N(N)C(=S)Nc1ccc(C(F)(F)F)cc1)[C@](O)(Cn1cncn1)c1ccc(F)cc1F` [Compound No. 33, 2-[(1R,2R)-2-(2,4-difluorophenyl)-2-hydroxy-1-methyl-3-(1H-1,2,4-triazol-1-yl)propyl]-4-[4-trifluoromethylphenyl]thiosemicarbazide], which MIC (A. fum.; [3]) is on record?
Answer: 4 µg/mL (≈ 8.22 µM)

Question: And the MIC (A. fum.; [4])?
Answer: 2 µg/mL (≈ 4.11 µM)

Question: Which results are given for `C[C@@H](N(N)C(=S)Nc1ccc(OC(F)(F)F)cc1)[C@](O)(Cn1cncn1)c1ccc(F)cc1F` [Compound No. 34, 2-[(1R,2R)-2-(2,4-Difluorophenyl)-2-hydroxy-1-methyl-3-(1H-1,2,4-triazol-1-yl)propyl]-4-[4-trifluoromethoxyphenyl]thiosemicarbazide]?
Answer: MIC (A. fum.; [3]): 2 µg/mL (≈ 3.98 µM); MIC (A. fum.; [4]): 2 µg/mL (≈ 3.98 µM)

Question: With `C[C@@H](N(N)C(=S)NCc1ccco1)[C@](O)(Cn1cncn1)c1ccc(F)cc1F` [Compound No. 35, 2-[(1R,2R)-2-(2,4-difluorophenyl)-2-hydroxy-1-methyl-3-(1H-1,2,4-triazol-1-yl)propyl]-4-[2-furanmethyl]thiosemicarbazide] as the compound, how does the “MIC (A. fum.) 1008” value (A. fum.; [5]) read?
Answer: 4 µg/mL (≈ 9.47 µM)

Question: What about the “MIC (A. fum.) Si-l” value (A. fum.; [6]) of the same compound?
Answer: 4 µg/mL (≈ 9.47 µM)

Question: What does the source list for `C[C@@H](N(N)C(=S)NCc1cccs1)[C@](O)(Cn1cncn1)c1ccc(F)cc1F` [Compound No. 36, 2-[(1R,2R)-2-(2,4-difluorophenyl)-2-hydroxy-1-methyl-3-(1H-1,2,4-triazol-1-yl)propyl]-4-[2-thiophenmethyl]thiosemicarbazide]?
Answer: MIC (A. fum.) 1008 (A. fum.; [5]): 4 µg/mL (≈ 9.12 µM); MIC (A. fum.) Si-l (A. fum.; [6]): 2 µg/mL (≈ 4.56 µM)

Question: For `C[C@@H](N(N)C(=S)Nc1ccc(Cl)cn1)[C@](O)(Cn1cncn1)c1ccc(F)cc1F` [Compound No. 37, 2-[(1R,2R)-2-(2,4-Difluorophenyl)-2-hydroxy-1-methyl-3-(1H-1,2,4-triazol-1-yl)propyl]-4-[3-chloropyridin-6-yl]thiosemicarbazide], which MIC (A. fum.; [3]) is on record?
Answer: 0.5 µg/mL (≈ 1.1 µM)

Question: What about the MIC (A. fum.; [4]) of the same compound?
Answer: 1 µg/mL (≈ 2.2 µM)

Question: With `C[C@@H](N(N)C(=S)Nc1cnc2ccccc2c1)[C@](O)(Cn1cncn1)c1ccc(F)cc1F` [Compound No. 39, 2-[(1R,2R)-2-(2,4-Difluorophenyl)-2-hydroxy-1-methyl-3-(1H-1,2,4-triazol-1-yl)propyl]-4-[quinolin-3-yl]thiosemicarbazide] as the compound, how does the MIC (A. fum.; [7]) read?
Answer: 16 µg/mL (≈ 34.1 µM)

Question: What about the MIC (A. fum.; [8]) of the same compound?
Answer: 4 µg/mL (≈ 8.52 µM)

Question: Which MIC (A. fum.; [7]) does the source give for `C[C@@H](n1ncn(-c2ccc(O)cc2)c1=S)[C@](O)(Cn1cncn1)c1ccc(F)cc1F` [Compound No. 41, 2-[(1R,2R)-2-(2,4-difluorophenyl)-2-hydroxy-1-methyl-3-(1,2,4-triazol-1-yl)propyl]-4-[4-hydroxyphenyl]-(2H,4H)-1,2,4-triazol-3-thione] here?
Answer: > 16 µg/mL

Question: What about the MIC (A. fum.; [8]) of the same compound?
Answer: > 16 µg/mL

Question: For `C[C@@H](n1ncn(-c2ccc(OCC(F)(F)C(F)F)cc2)c1=S)[C@](O)(Cn1cncn1)c1ccc(F)cc1F` [Compound No. 42, 2-[(1R,2R)-2-(2,4-difluorophenyl)-2-hydroxy-1-methyl-3-(1,2,4-triazol-1-yl)propyl]-4-[4-(2,2,3,3-tetrafluoropropoxy)phenyl]-(2H,4H)-1,2,4-triazol-3-thione], which MIC (A. fum.; [3]) is on record?
Answer: 0.25 µg/mL (≈ 0.448 µM)

Question: And the MIC (A. fum.; [4])?
Answer: 0.125 µg/mL (≈ 0.224 µM)

Question: Which results are given for `C[C@@H](n1ncn(-c2ccc([N+](=O)[O-])cc2)c1=S)[C@](O)(Cn1cncn1)c1ccc(F)cc1F` [Compound No. 43, 2-[(1R,2R)-2-(2,4-difluorophenyl)-2-hydroxy-1-methyl-3-(1,2,4-triazol-1-yl)propyl]-4-[4-nitrophenyl]-(2H,4H)-1,2,4-triazol-3-thione]?
Answer: MIC (A. fum.; [7]): 4 µg/mL (≈ 8.45 µM); MIC (A. fum.; [8]): 2 µg/mL (≈ 4.22 µM)

Question: What does the source list for `C[C@@H](n1ncn(-c2ccc(-n3ncnn3)cc2)c1=S)[C@](O)(Cn1cncn1)c1ccc(F)cc1F` [Compound No. 44]?
Answer: MIC (A. fum.) 1008 (A. fum.; [5]): 2 µg/mL (≈ 4.03 µM); MIC (A. fum.) Si-l (A. fum.; [6]): 2 µg/mL (≈ 4.03 µM)

Question: With `C[C@@H](n1ncn(-c2ccc(C(F)(F)F)cc2)c1=S)[C@](O)(Cn1cncn1)c1ccc(F)cc1F` [Compound No. 45, 2-[(1R,2R)-2-(2,4-difluorophenyl)-2-hydroxy-1-methyl-3-(1,2,4-triazol-1-yl)propyl]-4-[4-trifluoromethylphenyl]-(2H,4H)-1,2,4-triazol-3-thione] as the compound, how does the MIC (A. fum.; [3]) read?
Answer: 1 µg/mL (≈ 2.01 µM)

Question: And the MIC (A. fum.; [4])?
Answer: 0.5 µg/mL (≈ 1.01 µM)

Question: For `C[C@@H](n1ncn(-c2ccc(OC(F)(F)F)cc2)c1=S)[C@](O)(Cn1cncn1)c1ccc(F)cc1F` [Compound No. 46, 2-[(1R,2R)-2-(2,4-Difluorophenyl)-2-hydroxy-1-methyl-3-(1H-1,2,4-triazol-1-yl)propyl]-4-[4-trifluoromethoxyphenyl]-(2H,4H)-1,2,4-triazol-3-thione], which MIC (A. fum.; [3]) is on record?
Answer: 2 µg/mL (≈ 3.9 µM)

Question: And the MIC (A. fum.; [4])?
Answer: 0.5 µg/mL (≈ 0.976 µM)

Question: For `COC(=O)C(c1ccccc1)n1cnn([C@H](C)[C@](O)(Cn2cncn2)c2ccc(F)cc2F)c1=S` (stereo partly drawn) [Compound No. 50], which “MIC (A. fum.) 1008” value (A. fum.; [5]) is on record?
Answer: >16 µg/mL

Question: What about the “MIC (A. fum.) Si-l” value (A. fum.; [6]) of the same compound?
Answer: >16 µg/mL

Question: For `COC(=O)C(CC(C)C)n1cnn([C@H](C)[C@](O)(Cn2cncn2)c2ccc(F)cc2F)c1=S` (stereo partly drawn) [Compound No. 51, Methyl-2-isobutyl-2-[[(1R,2R)-2-(2,4-difluorophenyl)-2-hydroxy-1-methyl-3-(1H-1,2,4-triaolyl)propyl]-(2H,4H)-1,2,4-triazol-3-thion-4-yl]acetate], which “MIC (A. fum.) 1008” value (A. fum.; [5]) is on record?
Answer: >16 µg/mL

Question: What about the “MIC (A. fum.) Si-l” value (A. fum.; [6]) of the same compound?
Answer: <16 µg/mL

Question: With `COC(=O)C(CCSC)n1cnn([C@H](C)[C@](O)(Cn2cncn2)c2ccc(F)cc2F)c1=S` (stereo partly drawn) [Compound No. 52, Methyl-2-methylthioethyl-2-[[(1R,2R)-2-(2,4-difluorophenyl)-2-hydroxy-1-methyl-3-(1H-1,2,4-triaolyl)propyl]-(2H,4H)-1,2,4-triazol-3-thion-4-yl]acetate] as the compound, how does the “MIC (A. fum.) 1008” value (A. fum.; [5]) read?
Answer: >16 µg/mL

Question: And the “MIC (A. fum.) Si-l” value (A. fum.; [6])?
Answer: >16 µg/mL

Question: For `C[C@@H](n1ncn(Cc2ccco2)c1=S)[C@](O)(Cn1cncn1)c1ccc(F)cc1F` [Compound No. 53, 2-[(1R,2R)-2-(2,4-Difluorophenyl)-2-hydroxy-1-methyl-3-(1H-1,2,4-triazol-1-yl)propyl]-4-[2-furanmethyl]-(2H,4H)-1,2,4-triazol-3-thione], which “MIC (A. fum.) 1008” value (A. fum.; [5]) is on record?
Answer: 8 µg/mL (≈ 18.5 µM)

Question: And the “MIC (A. fum.) Si-l” value (A. fum.; [6])?
Answer: 4 µg/mL (≈ 9.25 µM)

Question: Which results are given for `C[C@@H](n1ncn(-c2ccc(Cl)cn2)c1=S)[C@](O)(Cn1cncn1)c1ccc(F)cc1F` [Compound No. 55, 2-[(1R,2R)-2-(2,4-Difluorophenyl)-2-hydroxy-1-methyl-3-(1H-1,2,4-triazol-1-yl)propyl]-4-[3-chloropyridin-6-yl]-(2H,4H)-1,2,4-triazol-3-thione]?
Answer: MIC (A. fum.; [3]): 4 µg/mL (≈ 8.62 µM); MIC (A. fum.; [4]): 2 µg/mL (≈ 4.31 µM)

Question: For `C[C@@H](c1ncncc1F)[C@](O)(Cn1cncn1)c1ccc(F)cc1F` [Voriconazole], which “fold greater inhibition of ergosterol P450DM compared to fluconazole” value [1] is on record?
Answer: 160 fold

Question: What about the “fold greater inhibition of ergosterol P450DM compared to fluconazole” value [2] of the same compound?
Answer: 1.6 fold
